In paper PMC8037182, “Solvothermal Synthesis of Multiple Dihydropyrimidinones at a Time as Inhibitors of Eg5” (Molecules, 2021):
pIC50: −log10 of the molar value.

Target: T1, Eg5 motor protein (Homo sapiens, UniProt P52732)
T1 construct: Eg5 motor domain (amino acids 1-368) was cloned into pET22b; His-tag (C); made in house; host or cells: Escherichia coli BL21 (DE3)
T1 sequence (P52732 1-368): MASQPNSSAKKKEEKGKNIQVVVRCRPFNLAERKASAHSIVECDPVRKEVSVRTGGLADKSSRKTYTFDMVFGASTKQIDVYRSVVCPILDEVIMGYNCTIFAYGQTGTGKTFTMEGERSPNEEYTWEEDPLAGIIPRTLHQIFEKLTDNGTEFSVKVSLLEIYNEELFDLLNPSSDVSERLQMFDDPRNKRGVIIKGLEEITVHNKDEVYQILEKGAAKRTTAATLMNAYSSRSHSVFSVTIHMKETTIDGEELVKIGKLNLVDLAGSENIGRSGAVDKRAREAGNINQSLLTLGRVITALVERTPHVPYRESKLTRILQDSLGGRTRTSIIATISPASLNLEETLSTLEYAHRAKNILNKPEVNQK
Test: microtubule-activated Eg5 motor protein ATPase assay (malachite green, OD630)
Format: biochemical
Conditions: for pIC50: microtubule-stimulated KSP ATPase activity
Method: Eg5 motor domain (amino acids 1-368) was cloned into pET22b and expressed in Escherichia coli BL21 (DE3) cells.
Tubulin was purified from pig brain, as described in the literature, and stored at −60 °C in BRB80 (80 mM K-Pipes, pH 6.8, 1 mM EGTA, 1 mM MgCl2). Before the assay of Eg5 ATPase, microtubules were assembled in the presence of paclitaxel and were then separated from unassembled tubulin by centrifugation as described in the literature.
Inhibitory activities of the compounds were measured using a microtubule-activated ATPase assay. The compounds, paclitaxel stabilized microtubules, Eg5 motor protein and BRB80 were added to wells of a 96-well plate in a total reaction volume of 38.5 μL. Reactions were started by the addition of 522.11 μM ATP in a total reaction volume of 98.5 μL, incubated at 37 °C for 30 min and terminated by the addition of 15 μL of perchloric acid. The mixture was centrifuged (10,000 rpm) 10 min at room temperature. The supernatant from this centrifugation step was mixed with HCl 1 M, 33 mM malachite green, 775 mM ammonium molybdate tetrahydrate. After 10 min the absorbance was measured at 630 nm using a microplate reader (BIO-RAD iMark^TM). […] Monastrol was used as the positive control. All conditions were performed in three independent duplicate experiments and averaged data points are shown as mean values ± SD, IC50 values were calculated with SPSS17.0 software. The primary data were shown in Supplementary Materials Tables S1–S3.
A sequence of human Eg5 corresponding to amino acids 1 to 368 was amplified with polymerase chain reaction (PCR) by NOVOPRO BIOSCIENCE INC. It was cloned into pET22b introducing a C-terminal His-tag. The protein was expressed in Escherichia coli BL21 (DE3) cells for 12 h at 25 ℃ in LB containing 1mM Isopropyl-beta-D-thiogalactopyranoside (IPTG), 50 ug/ml Ampicillin. The harvested cells were lysed with Ultrasonic Processor in Binder-buffer (50 mM Tris-HCl, 350 mM NaCl, 10 mM Imidazole, pH 8.0). The clarified lysate was loaded onto a Ni-IDA -Sepharose CL-6B Affi Gel column (Sigma), washed with Washing-buffer(20 mM Tris-HCl, 350 mM NaCl, 20 mM Imidazole, pH 8.0) untill effluent OD280 value reaches baseline. Then it was eluted with Elution-buffer (20 mM Tris-HCl, 350 mM NaCl , 250 mM Imidazole, pH8.0). The buffer was exchanged to 150 mM NaCl, 20mM Tris pH 8.0 by dialysis. The protein concentration was adjusted to 2 mg/ml (measured by a Bradford assay using bovine serum albumin (BSA) as standard). Eg5368H was stored at -20 ℃.
Pig brains were cleaned of blood clots with kitchen paper, weighed, and transferred to a Waring blender. Cold (4 ℃) depolymerization buffer (DB) was added at a ratio of 1 liter/kg of brain tissue. The mixture was homogenized twice for approximately 30 s. The homogenates were then centrifuged in a SLA 1500 Sorvall rotor at 29,000g for 60 min at 4 ℃. The supernatants were pooled and supplemented with an equal volume of warm (37 ℃) high-molarity PIPES buffer (HMPB), ATP (1.5 mM final), and GTP (0.5 mM final). An equal volume (1/3 of the final volume) of pre-warmed to 37 ℃ anhydrous glycerol was added to this solution. This mixture was incubated in a 37 ℃ water bath for 1 h. The polymerized tubulin was then centrifuged in a Ti 45 Beckman rotor at 151,000g (44,000 rpm) for 30 min at 37 ℃. The resulting microtubule pellets were resuspended in 100 ml of cold DB and left for 30 min on ice. The depolymerized tubulinwas subsequently centrifuged in a Ti 45 Beckman rotor at 70,000g (30,000 rpm) for 30 min at 4 ℃. The supernatant from this centrifugation step was mixed with an equal volume of the HMPB supplemented with ATP and GTP, followed by the addition of glycerol (1/3 of the final volume) as described above. The mixture was incubated in a 37 ℃ water bath for 30 min, and the polymerized tubulin was pelleted in a Ti 45 Beckman rotor at 151,000g (44,000 rpm) for 30 min at 37 ℃. […]

| SMILES | OD630 Value Mean (compound 30.3 uM) | OD630 Value Mean (compound 60.61 uM) | OD630 Value Mean (compound 80.81 uM) | OD630 Value Mean (compound 90.91 uM) | OD630 Value Mean (compound 121.21 uM) | pIC50 | OD630 Value Mean (compound 24.24 uM) | OD630 Value Mean (compound 25.38 uM) | OD630 Value Mean (compound 50.76 uM) | OD630 Value Mean (compound 67.68 uM) | OD630 Value Mean (compound 76.14 uM) | OD630 Value Mean (compound 101.52 uM) | OD630 Value Mean (compound 20.2 uM) | OD630 Value Mean (compound 40.41 uM) | OD630 Value Mean (compound 53.87 uM) | OD630 Value Mean (compound 107.74 uM) |
| --- | --- | --- | --- | --- | --- | --- | --- | --- | --- | --- | --- | --- | --- | --- | --- | --- |
| CCOC(=O)c1[nH]c(C2NC(=O)NC(C)=C2C(=O)Nc2ccc(Cl)cc2)c(C(=O)OCC)c1C (stereo not shown) [D7] | 0.231 | 0.197 | 0.164 | 0.158 | 0.146 | 4.20 |  |  |  |  |  |  |  |  |  |  |
| CCOc1ccccc1C1NC(=S)NC(C)=C1C(=O)Nc1ccc(Cl)cc1 (stereo not shown) [C9] | 0.182 | 0.163 | 0.157 | 0.156 | 0.14 | 4.52 | 0.221 |  |  |  |  |  |  |  |  |  |
| CCOC(=O)C1=C(C)NC(=S)NC1c1cccc(O)c1 (stereo not shown) [Monastrol, monastrol, reference compound] |  |  |  |  |  | 4.29 |  | 0.214 | 0.193 | 0.190 | 0.188 | 0.177 |  |  |  |  |
| COC(=O)c1[nH]c(C2NC(=S)NC(C)=C2C(=O)c2ccccc2)c(C(=O)OC)c1C (stereo not shown) [D14] | 0.25 | 0.187 | 0.151 | 0.138 | 0.14 | 4.14 |  |  |  |  |  |  |  |  |  |  |
| CCOC(=O)c1[nH]c(C2NC(=S)NC(C)=C2C(=O)OC)c(C(=O)OCC)c1C (stereo not shown) [D12] | 0.243 | 0.191 | 0.141 | 0.129 | 0.123 | 4.24 |  |  |  |  |  |  |  |  |  |  |

Other lines, results leading:

| OD630 Value Mean (compound 30.3 uM) | OD630 Value Mean (compound 60.61 uM) | OD630 Value Mean (compound 80.81 uM) | OD630 Value Mean (compound 90.91 uM) | OD630 Value Mean (compound 121.21 uM) | pIC50 | OD630 Value Mean (compound 24.24 uM) | OD630 Value Mean (compound 25.38 uM) | OD630 Value Mean (compound 50.76 uM) | OD630 Value Mean (compound 67.68 uM) | OD630 Value Mean (compound 76.14 uM) | OD630 Value Mean (compound 101.52 uM) | OD630 Value Mean (compound 20.2 uM) | OD630 Value Mean (compound 40.41 uM) | OD630 Value Mean (compound 53.87 uM) | OD630 Value Mean (compound 107.74 uM) | SMILES |
| --- | --- | --- | --- | --- | --- | --- | --- | --- | --- | --- | --- | --- | --- | --- | --- | --- |
| 0.174 | 0.158 |  | 0.148 | 0.134 | 4.15 | 0.198 |  |  |  |  |  |  |  |  |  | CCOC(=O)c1[nH]c(C2NC(=O)NC(C)=C2C(=O)Nc2ccccc2C)c(C(=O)OC)c1C (stereo not shown) [D4] |
|  | 0.219 | 0.137 |  |  | 4.17 |  |  |  |  |  |  | 0.322 | 0.279 | 0.26 |  | CCOC(=O)c1c(C2NC(=O)NC(C)=C2C(=O)Nc2ccccc2C)[nH]c(C(=O)OC)c1C (stereo not shown) [D2] |
|  |  |  |  |  | 4.41 |  | 0.26 | 0.248 | 0.195 | 0.189 | 0.159 |  |  |  |  | CCOC(=O)c1c(C2NC(=O)NC(C)=C2C(=O)Nc2ccccc2OC)[nH]c(C(=O)OC)c1C (stereo not shown) [D1] |
| 0.182 | 0.146 |  | 0.122 | 0.115 | 4.27 | 0.218 |  |  |  |  |  |  |  |  |  | CCOC(=O)c1[nH]c(C2NC(=O)NC(C)=C2C(=O)Nc2ccccc2OC)c(C(=O)OC)c1C (stereo not shown) [D3] |
|  | 0.225 | 0.197 | 0.191 | 0.133 | 4.19 |  |  |  |  |  |  |  |  |  | 0.139 | CCOC(=O)c1c(C2NC(=O)NC(C)=C2C(=O)Nc2ccccc2)[nH]c(C(=O)OC)c1C (stereo not shown) [D10] |
